Data reported in US20080221161A1, “HETEROCYCLIC MODULATORS OF TGR5 FOR TREATMENT OF DISEASE” (KALYPSYS, INC., priority 2007, published 2008).
Structures can show the parent of a compound that is named as a salt.

Molecular target: T1, human TGR5 (Homo sapiens, UniProt Q8TDU6)
T1 construct: expressed in transfected cells; host or cells: HEK-293 cells, stably transfected (pcDNA 3.1, Fugene6, geneticin selection)
T1 sequence (Q8TDU6 1-330): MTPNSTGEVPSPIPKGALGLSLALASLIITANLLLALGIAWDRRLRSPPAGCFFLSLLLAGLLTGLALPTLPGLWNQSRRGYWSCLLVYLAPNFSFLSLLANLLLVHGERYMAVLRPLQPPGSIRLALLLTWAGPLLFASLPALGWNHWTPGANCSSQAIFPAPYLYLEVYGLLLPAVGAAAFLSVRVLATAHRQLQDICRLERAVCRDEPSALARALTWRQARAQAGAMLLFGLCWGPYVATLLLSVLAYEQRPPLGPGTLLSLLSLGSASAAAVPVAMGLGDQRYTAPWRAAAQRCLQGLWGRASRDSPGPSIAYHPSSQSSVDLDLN
Experiment: cAMP production assay in HEK293-TGR5 cells
Format: cell-based
Conditions: HEK293 cells stably expressing human TGR5; 30 minutes stimulation; LANCE cAMP TR-FRET; read-out: cAMP Production in 293-TGR5 Cells EC50
Description: HEK293 cells stably expressing TGR5 (HEK293-TGR5) were established by stably transfecting HEK-293 cells with an expression vector (pcDNA 3.1, Invetrogen) inserted with human TGR5 cDNA using Fugene6 (Roche, Indianapolis, Ind.) according to conventional methods. Cells were grown in DMEM (invitrogen, Carlsbad, Calif.) supplemented with 10% FBS, 1% penicillin/streptomycin under geneticin selection. The presence of TGR5 transcripts in these cells was confirmed using branched DNA (bDNA, Genospectra, Inc., Fremont Calif.) following the manufacturer's protocol and using specific probes for human TGR5. cAMP production assay was performed in high throughput 1536 well format using LANCE cAMP detection kit (Perkin Elmer Inc., Boston, Mass.) according to the manufacturer's protocol. Briefly, HEK293-TGR5 cells were harvested using non-enzymatic cell dissociation buffer (Invitrogen, Carlsbad, Calif.) and suspended in DMEM supplemented with 0.1% FBS at a density of 800,000 cells/ml. Alexa antibody was added to the cell suspension, and 4 ul of the mixture was dispensed in white opaque tissue culture treated Greiner 1536 well plates (USA Scientific, Inc., Ocala, Fla.). After an overnight incubation at 37C in an atmosphere of 10% CO2 and 95% humidity, 1 ul of 5 mM IBMX (Sigma, St. Louis, Mo.) solution in DMEM was dispensed for a final concentration of 1 mM. Cells were then stimulated with test compounds for 30 minutes, after which time 5 ul of detection reagent was added and incubated for 1-7 hrs at room temperature. TR-FRET signal was detected using the Viewlux (Perkin Elmer Inc., Boston Mass.). EC50 values were determined using Graph Pad Prizm analysis (GraphPad Software, Inc).

| Structure (SMILES) | EC50 [µM] |
| --- | --- |
| CN(C)c1ccc2cc(CNCCc3ccc(Br)cc3)c(-c3ccsc3)nc2c1 [Example 89, 3-((4-Bromophenethylamino)methyl)-N,N-dimethyl-2-(thiophen-3-yl)quinolin-7-amine] | > 10 |
| Oc1ccc2cc(CCNCCc3ccc(Br)cc3)c(-c3ccsc3)nc2c1 [Example 104, 3-(2-(4-Bromophenethylamino)ethyl)-2-(thiophen-3-yl)quinolin-7-ol] | > 10 |
| COc1ccc2cc(CNCc3ccc(C(F)(F)F)cc3)c(-c3cscc3C)nc2c1 [Example 55, 1-(7-Methoxy-2-(4-methylthiophen-3-yl)quinolin-3-yl)-N-(4-(trifluoromethyl)benzyl)methanamine] | > 10 |
| COc1ccc2cc(CNCCc3ccc(Br)cc3)c(-c3cscc3C)nc2c1 [Example 56, 2-(4-Bromophenyl)-N-((7-methoxy-2-(4-methylthiophen-3-yl)quinolin-3-yl)methyl)ethanamine] | > 10 |
| COc1ccc2cc(CNCc3ccc(C(F)(F)F)cc3)c(Sc3ccncc3)nc2c1 [Example 94, 1-(7-Methoxy-2-(pyridin-4-ylthio)quinolin-3-yl)-N-(4-(trifluoromethyl)benzyl)methanamine] | > 10 |
| COc1ccc2cc(CCNCCc3ccc(Br)cc3)c(-c3ccsc3)nc2c1 [Example 102, N-(4-bromophenethyl)-2-(7-methoxy-2-(thiophen-3-yl)quinolin-3-yl)ethanamine] | > 10 |
| COc1ccc2cc(NCc3ccc(C(F)(F)F)cc3)c(-c3ccsc3)nc2c1 [Example 115, 7-Methoxy-2-(thiophen-3-yl)-N-(4-(trifluoromethyl)benzyl)quinolin-3-amine] | > 10 |
| COc1ccc2cc(CN(C)CCc3ccc(Cl)cc3)c(-c3ccsc3)nc2c1 [Example 35, 2-(4-Chlorophenyl)-N-((7-methoxy-2-(thiophen-3-yl)quinolin-3-yl)methyl)-N-methylethanamine] | > 10 |
| COc1ccc2cc(CCNCc3ccc(C(F)(F)F)cc3)c(-c3ccsc3)nc2c1 [Example 106, 2-(7-Methoxy-2-(thiophen-3-yl)quinolin-3-yl)-N-(4-(trifluoromethyl)benzyl)ethanamine] | > 10 |
| COc1ccc2cc(C(C)NCCc3ccc(Br)cc3)c(-c3ccsc3)nc2c1 (racemic) [Example 143, (±)-N-(4-Bromophenethyl)-1-(7-methoxy-2-(thiophen-3-yl)quinolin-3-yl)ethanamine] | > 10 |
| COc1cc2cc(CNCCc3ccc(Br)cc3)c(-c3ccsc3)nc2cc1Cl [Example 123, 2-(4-Bromophenyl)-N-((7-chloro-6-methoxy-2-(thiophen-3-yl)quinolin-3-yl)methyl)ethanamine] | > 10 |
| COc1ccc2cc(CNCCc3ccc(Br)cc3)c(O)nc2c1 [Example 149, 3-((4-Bromophenethylamino)methyl)-7-methoxyquinolin-2(1H)-one hydrochloride] | > 10 |
| COc1cc(OC)c(CNCc2cc3ccc(OC)cc3nc2-c2ccncc2)c(OC)c1 [Example 74, 1-(7-Methoxy-2-(pyridin-4-yl)quinolin-3-yl)-N-(2,4,6-trimethoxybenzyl)methanamine] | > 10 |
| COc1ccc2cc(CNCc3ccc(C(F)(F)F)cc3)c(-c3ncco3)nc2c1 [Example 37, 1-(7-Methoxy-2-(oxazol-2-yl)quinolin-3-yl)-N-(4-(trifluoromethyl)benzyl)methanamine] | > 10 |
| COc1ccc2cc(CNCc3ccc(C(F)(F)F)cc3)c(-c3ccco3)nc2c1 [Example 77, 1-(2-(Furan-2-yl)-7-methoxyquinolin-3-yl)-N-(4-(trifluoromethyl)benzyl)methanamine] | > 10 |
| Oc1cc2nc(-c3ccsc3)c(CNCCc3ccc(Br)cc3)cc2cc1F [Example 147, 3-((4-Bromophenethylamino)methyl)-6-fluoro-2-(thiophen-3-yl)quinolin-7-ol] | > 10 |
| COc1ccc2cc(CNCCc3ccccn3)c(-c3ccncc3)nc2c1 [Example 80, N-((7-Methoxy-2-(pyridin-4-yl)quinolin-3-yl)methyl)-2-(pyridin-2-yl)ethanamine] | > 10 |
| COc1ccc2cc(CNCc3ccc(C(F)(F)F)cc3)c(-c3ccncc3)nc2c1 [Example 23, 1-(7-Methoxy-2-(pyridin-4-yl)quinolin-3-yl)-N-(4-(trifluoromethyl)benzyl)methanamine] | < 10 |
| CCOc1ccc2cc(CNCc3ccc(C(F)(F)F)cc3)c(-c3cccnc3)nc2c1 [Example 46, 1-(7-Ethoxy-2-(pyridin-3-yl)quinolin-3-yl)-N-(4-(trifluoromethyl)benzyl)methanamine] | > 10 |
| COc1ccc2cc(CNCc3ccc(C(F)(F)F)cc3)c(-c3ccoc3)nc2c1 [Example 90, 1-(2-(Furan-3-yl)-7-methoxyquinolin-3-yl)-N-(4-(trifluoromethyl)benzyl)methanamine] | > 10 |
| COc1ccc2cc(CNC(=O)COc3cccc4ncccc34)c(-c3ccsc3)nc2c1 [Example 119, N-((7-Methoxy-2-(thiophen-3-yl)quinolin-3-yl)methyl)-2-(quinolin-5-yloxy)acetamide] | < 10 |

Second part, the compound after the results:

| EC50 [µM] | Structure (SMILES) |
| --- | --- |
| < 10 | COc1cc2nc(-c3ccsc3)c(CNCCc3ccc(Br)cc3)cc2cc1F [Example 146, 2-(4-Bromophenyl)-N-((6-fluoro-7-methoxy-2-(thiophen-3-yl)quinolin-3-yl)methyl)-ethanamine] |
| < 10 | COc1ccc2cc(CNCCc3cccnc3)c(-c3ccncc3)nc2c1 [Example 76, N-((7-Methoxy-2-(pyridin-4-yl)quinolin-3-yl)methyl)-2-(pyridin-3-yl)ethanamine] |
| < 10 | COc1ccc2cc(CNCCc3ccc(Cl)cc3)c(-c3ccccc3F)nc2c1 [Example 25, 2-(4-Chlorophenyl)-N-((2-(2-fluorophenyl)-7-methoxyquinolin-3-yl)methyl)ethanamine] |
| < 10 | COc1ccc2cc(C(=O)NCCc3ccc(Cl)cc3)c(-c3ccsc3)nc2c1 [Example 19, N-(4-Chlorophenethyl)-7-methoxy-2-(thiophen-3-yl)quinoline-3-carboxamide] |
| < 10 | COc1ccc2cc(CNC3CCc4ccccc43)c(-c3ccncc3)nc2c1 (racemic) [Example 86, (±)-N-((7-Methoxy-2-(pyridin-4-yl)quinolin-3-yl)methyl)-2,3-dihydro-1H-inden-1-amine] |
| < 10 | COc1ccc2cc(CNCc3ccc(C(F)(F)F)cc3)c(-c3cccnc3)nc2c1 [Example 6, 1-(7-Methoxy-2-(pyridin-3-yl)quinolin-3-yl)-N-(4-(trifluoromethyl)benzyl)methanamine] |
| < 10 | COc1ccc2cc(NCCc3ccc(Br)cc3)c(-c3ccsc3)nc2c1 [Example 116, N-(4-Bromophenethyl)-7-methoxy-2-(thiophen-3-yl)quinolin-3-amine] |
| < 10 | Oc1ccc2cc(CNCCc3ccc(Br)cc3)c(-c3ccncc3)nc2c1 [Example 96, 3-((4-Bromophenethylamino)methyl)-2-(pyridin-4-yl)quinolin-7-ol] |
| < 10 | COc1ccc2cc(CNCc3ccc(C(F)(F)F)cc3)c(-c3cnn(C)c3)nc2c1 [Example 20, 1-(7-Methoxy-2-(1-methyl-1H-pyrazol-4-yl)quinolin-3-yl)-N-(4-(trifluoromethyl)benzyl)methanamine] |
| < 10 | COc1ccc2cc(CNCc3cccc(C(F)(F)F)c3)c(-c3ccsc3)nc2c1 [Example 3, 1-(7-Methoxy-2-(thiophen-3-yl)quinolin-3-yl)-N-(3-(trifluoromethyl)benzyl)methanamine] |
| < 10 | OCc1ccc2cc(CNCCc3ccc(Br)cc3)c(-c3ccsc3)nc2c1 [Example 141, (3-((4-Bromophenethylamino)methyl)-2-(thiophen-3-yl)quinolin-7-yl)methanol] |
| < 10 | COc1ccc2cc(CNCc3ccc(F)cc3F)c(-c3ccncc3)nc2c1 [Example 87, N-(2,4-Difluorobenzyl)-1-(7-methoxy-2-(pyridin-4-yl)quinolin-3-yl)methanamine] |
| < 10 | COc1ccc2cc(CNCc3ccc(Br)cc3)c(-c3ccncc3)nc2c1 [Example 52, N-(4-Bromobenzyl)-1-(7-methoxy-2-(pyridin-4-yl)quinolin-3-yl)methanamine] |
| < 10 | COc1cc(OC)c2cc(CNCCc3ccc(Br)cc3)c(-c3ccsc3)nc2c1 [Example 54, 2-(4-Bromophenyl)-N-((5,7-dimethoxy-2-(thiophen-3-yl)quinolin-3-yl)methyl)ethanamine] |
